Converted amounts (≈) assume the structure as drawn.
Assays:
Format in all cases: cell-based
[1] = tested on: strain C, fluoroquinolone-resistant clinical isolate of Streptococcus pneumoniae; experiment: In vitro antibacterial activity (MIC), microdilution broth method (NCCLS), strain C; conditions: read-out: In vitro Antibacterial Activity MIC, C
Description: (§1) Minimal inhibitory concentration (MIC) has been an indicator of in vitro antibacterial activity widely used in the art. The in vitro antimicrobial activity of representative compounds of the present invention was determined by the microdilution broth method following the test method from the National Committee for Clinical Laboratory Standards (NCCLS). This method is described in the NCCLS Document M7-A4, Vol. 17, No. 2, “Methods for Dilution Antimicrobial Susceptibility Test for Bacteria that Grow Aerobically—Fourth Edition”, which is incorporated herein by reference.
(§2) In this method two-fold serial dilutions of drug in cation adjusted Mueller-Hinton broth are added to wells in microdilution trays. The test organisms are prepared by adjusting the turbidity of actively growing broth cultures so that the final concentration of test organism after it is added to the wells is approximately 5×10^4 CFU/well.
(§3) Following inoculation of the microdilution trays, the trays are incubated at 35° C. for 16-20 hours and then read. […] The amount of growth in the wells containing the test compound is compared with the amount of growth in the growth-control wells (no test compound) used in each tray. As set forth in Table 4, representative compounds of the present invention were tested against a variety of pathogenic bacteria resulting in a range of activities depending on the organism tested.

[2] = tested on: Staphylococcus aureus OC4172; experiment: In vitro antibacterial activity (MIC), microdilution broth method (NCCLS), strain A; conditions: cation adjusted Mueller-Hinton broth, 35° C., 16-20 hours
Description: as §1, §2, §3

[3] = tested on: Streptococcus pneumoniae ATCC 49619; experiment: In vitro antibacterial activity (MIC), microdilution broth method (NCCLS), strain E; conditions: ATCC49619, 35° C., 16-20 hours
Description: as §1, §2, §3

[4] = tested on: strain D, fluoroquinolone-resistant clinical isolate of Streptococcus pneumoniae; experiment: In vitro antibacterial activity (MIC), microdilution broth method (NCCLS), strain D; conditions: read-out: In vitro Antibacterial Activity MIC, D
Description: as §1, §2, §3

[5] = tested on: strain B, fluoroquinolone-resistant clinical isolate of Streptococcus pneumoniae; experiment: In vitro antibacterial activity (MIC), microdilution broth method (NCCLS), strain B; conditions: read-out: In vitro Antibacterial Activity MIC, B
Description: as §1, §2, §3

| Compound | MIC [1] [µg/mL] | MIC [2] [µg/mL] | MIC [3] [µg/mL] | MIC [4] [µg/mL] | MIC [5] [µg/mL] |
| --- | --- | --- | --- | --- | --- |
| O=C(O)c1cn(C2CC2)c2nc(N3CC4ON=C(c5ccc(Cl)cc5)C4C3)c(F)cc2c1=O (stereo not shown) [ID No. 110, 7-[3-(4-Chloro-phenyl)-3a,4,6,6a-tetrahydro-pyrrolo[3,4-d]isoxazol-5-yl]-1-cyclopropyl-6-fluoro-4-oxo-1,4-dihydro-[1,8]naphthyridine-3-carboxylic acid] | 8 (≈ 17.1 µM) | 0.06 (≈ 0.128 µM) | 0.5 (≈ 1.07 µM) |  |  |
| O=C(O)c1cn(C2CC2)c2nc(N3CC4ON=C(c5cccnc5)C4C3)c(F)cc2c1=O (stereo not shown) [ID No. 114, 1-Cyclopropyl-6-fluoro-4-oxo-7-(3-pyridin-3-yl-3a,4,6,6a-tetrahydro-pyrrolo[3,4-d]isoxazol-5-yl)-1,4-dihydro-[1,8]naphthyridine-3-carboxylic acid] | 2 (≈ 4.59 µM) | 0.12 (≈ 0.276 µM) | 1 (≈ 2.3 µM) | 8 (≈ 18.4 µM) |  |
| O=C(O)c1cn(-c2ccc(F)cc2F)c2nc(N3CC4ON=C(c5ccccn5)C4C3)c(F)cc2c1=O (stereo not shown) [ID No. 104, 1-(2,4-Difluoro-phenyl)-6-fluoro-4-oxo-7-(3-pyridin-2-yl-3a,4,6,6a-tetrahydro-pyrrolo[3,4-d]isoxazol-5-yl)-1,4-dihydro-[1,8]naphthyridine-3-carboxylic acid] | 2 (≈ 3.94 µM) | 0.06 (≈ 0.118 µM) | 1 (≈ 1.97 µM) | 4 (≈ 7.88 µM) | 0.5 (≈ 0.985 µM) |
| NCC1=NOC2CN(c3nc4c(cc3F)c(=O)c(C(=O)O)cn4-c3ccc(F)cc3F)CC12 (stereo not shown) [ID No. 200, 7-(3-Aminomethyl-3a,4,6,6a-tetrahydro-pyrrolo[3,4-d]isoxazol-5-yl)-1-(2,4-difluoro-phenyl)-6-fluoro-4-oxo-1,4-dihydro-[1,8]naphthyridine-3-carboxylic acid] | > 16 | 0.12 (≈ 0.261 µM) | 1 (≈ 2.18 µM) | > 16 | > 16 |
| COc1ccc(C2=NOC3CN(c4c(F)cc5c(=O)c(C(=O)O)cn(-c6nc(N)c(F)cc6F)c5c4Cl)CC23)cc1 (stereo not shown) [ID No. 133, 1-(6-Amino-3,5-difluoro-pyridin-2-yl)-8-chloro-6-fluoro-7-[3-(4-methoxy-phenyl)-3a,4,6,6a-tetrahydro-pyrrolo[3,4-d]isoxazol-5-yl]-4-oxo-1,4-dihydro-quinoline-3-carboxylic acid] | 8 (≈ 13.7 µM) | 0.25 (≈ 0.427 µM) | 2 (≈ 3.41 µM) | 16 (≈ 27.3 µM) |  |
| O=C(O)c1cn(-c2ccc(F)cc2F)c2nc(N3CC4ON=C(CN5C(=O)c6ccccc6C5=O)C4C3)c(F)cc2c1=O (stereo not shown) [ID No. 108, 1-(2,4-Difluoro-phenyl)-7-[3-(1,3-dioxo-1,3-dihydro-isoindol-2-ylmethyl)-3a,4,6,6a-tetrahydro-pyrrolo[3,4-d]isoxazol-5-yl]-6-fluoro-4-oxo-1,4-dihydro-[1,8]naphthyridine-3-carboxylic acid] | > 16 | 0.25 (≈ 0.424 µM) | 8 (≈ 13.6 µM) | > 16 | > 16 |
| O=C(O)c1cn(-c2ccc(F)cc2F)c2nc(N3CC4ON=C(CO)C4C3)c(F)cc2c1=O (stereo not shown) [ID No. 107, 1-(2,4-Difluoro-phenyl)-6-fluoro-7-(3-hydroxymethyl-3a,4,6,6a-tetrahydro-pyrrolo[3,4-d]isoxazol-5-yl)-4-oxo-1,4-dihydro-[1,8]naphthyridine-3-carboxylic acid] | > 16 | 0.12 (≈ 0.261 µM) | 2 (≈ 4.34 µM) | > 16 | > 16 |
| COc1c(N2C[C@@H]3ON=C(c4cccnc4)[C@@H]3C2)c(F)cc2c(=O)c(C(=O)O)cn(C3CC3)c12 (relative stereo) [ID No. 123, 7-[cis-3-(3-Pyridyl)-3a,4,6,6a-tetrahydropyrrolo[3,4-d]isoxazol-5-yl]-1-cyclopropyl-8-methoxy-6-fluoro-4-oxo-1,4-dihydroquinoline-3-carboxylic acid] | 8 (≈ 17.2 µM) | 0.06 (≈ 0.129 µM) | 0.5 (≈ 1.08 µM) | 2 (≈ 4.31 µM) | 8 (≈ 17.2 µM) |
| COc1c(N2C[C@@H]3ON=C(c4ccccn4)[C@@H]3C2)c(F)cc2c(=O)c(C(=O)O)cn(C3CC3)c12 (relative stereo) [ID No. 122, 7-[cis-3-(2-pyridyl)-3a,4,6,6a-tetrahydropyrrolo[3,4-d]isoxazol-5-yl]-1-cyclopropyl-8-methoxy-6-fluoro-4-oxo-1,4-dihydroquinoline-3-carboxylic acid] | 16 (≈ 34.4 µM) | < 0.12 | 1 (≈ 2.15 µM) | 2 (≈ 4.31 µM) | 16 (≈ 34.4 µM) |
| C[C@H]1COc2c(N3CC4ON=C(c5ccccn5)C4C3)c(F)cc3c(=O)c(C(=O)O)cn1c23 (stereo partly shown) [ID No. 129] | 16 (≈ 35.5 µM) | 0.06 (≈ 0.133 µM) | 1 (≈ 2.22 µM) | 4 (≈ 8.88 µM) | > 16 |
| O=C(O)c1cn(C2CC2)c2nc(N3CC4ON=C(c5ccncc5)C4C3)c(F)cc2c1=O (stereo not shown) [ID No. 115] | 8 (≈ 18.4 µM) | 0.06 (≈ 0.138 µM) | 1 (≈ 2.3 µM) | 4 (≈ 9.19 µM) | 16 (≈ 36.7 µM) |
| O=C(O)c1cn(C2CC2)c2nc(N3CC4ON=C(CN5C(=O)c6ccccc6C5=O)C4C3)c(F)cc2c1=O (stereo not shown) [ID No. 118, 1-Cyclopropyl-7-[3-(1,3-dioxo-1,3-dihydro-isoindol-2-ylmethyl)-3a,4,6,6a-tetrahydro-pyrrolo[3,4-d]isoxazol-5-yl]-6-fluoro-4-oxo-1,4-dihydro-[1,8]naphthyridine-3-carboxylic acid] | > 16 | 2 (≈ 3.86 µM) | 16 (≈ 30.9 µM) | > 16 | > 16 |
| COc1ccc(C2=NOC3CN(c4nc5c(cc4F)c(=O)c(C(=O)O)cn5-c4ccc(F)cc4F)CC23)cn1 (stereo not shown) [ID No. 102, 1-(2,4-Difluoro-phenyl)-6-fluoro-7-[3-(6-methoxy-pyridin-3-yl)-3a,4,6,6a-tetrahydro-pyrrolo[3,4-d]isoxazol-5-yl]-4-oxo-1,4-dihydro-[1,8]naphthyridine-3-carboxylic acid] | 16 (≈ 29.8 µM) | 0.06 (≈ 0.112 µM) | 1 (≈ 1.86 µM) | 2 (≈ 3.72 µM) | 4 (≈ 7.44 µM) |
| COc1ccc(C2=NO[C@H]3CN(c4c(F)cc5c(=O)c(C(=O)O)cn(C6CC6)c5c4OC)C[C@@H]23)cc1 (relative stereo) [ID No. 120, 7-[cis-3-(4-Methoxyphenyl)-3a,4,6,6a-tetrahydropyrrolo[3,4-d]isoxazol-5-yl]-1-cyclopropyl-8-methoxy-6-fluoro-4-oxo-1,4-dihydroquinoline-3-carboxylic acid] | 4 (≈ 8.11 µM) | 0.06 (≈ 0.122 µM) | 1 (≈ 2.03 µM) | 2 (≈ 4.05 µM) |  |
| COc1ccc(C2=NOC3CN(c4c(F)cc5c(=O)c(C(=O)O)cn6c5c4OC[C@@H]6C)CC23)cc1 (stereo partly drawn) [ID No. 128, 7-[cis-3-(4-Methoxyphenyl)-3a,4,6,6a-tetrahydropyrrolo[3,4-d]isoxazol-5-yl]S-(−)-9,10-difluoro-2,3-dihydro-3-methyl-7-oxo-7H-pyrido-[1,2,3-de][1,4]-benzoxazine-6-carboxylic acid] | 4 (≈ 8.34 µM) | 0.12 (≈ 0.25 µM) | 1 (≈ 2.09 µM) | 4 (≈ 8.34 µM) |  |
| O=C(O)c1cn(C2CC2)c2nc(N3CC4ON=C(c5ccccn5)C4C3)c(F)cc2c1=O (stereo not shown) [ID No. 113, 1-Cyclopropyl-6-fluoro-4-oxo-7-(3-pyridin-2-yl-3a,4,6,6a-tetrahydro-pyrrolo[3,4-d]isoxazol-5-yl)-1,4-dihydro-[1,8]naphthyridine-3-carboxylic acid] | 2 (≈ 4.59 µM) | 0.06 (≈ 0.138 µM) | 1 (≈ 2.3 µM) | 4 (≈ 9.19 µM) | 16 (≈ 36.7 µM) |
| COc1ccc(C2=NOC3CN(c4c(F)cc5c(=O)c(C(=O)O)cn([C@@H]6C[C@@H]6F)c5c4OC)CC23)cc1 (relative stereo) [ID No. 126, 7-[cis-3-(4-Methoxyphenyl)-3a,4,6,6a-tetrahydropyrrolo[3,4-d]isoxazol-5-yl]-1-[(1R,2S)-2-fluorocyclopropyl]-6-fluoro-8-methoxy-4-oxo-1,4-dihydro-quinoline-3-carboxylic acid] | 4 (≈ 7.82 µM) | 0.03 (≈ 0.0587 µM) | 0.5 (≈ 0.978 µM) | 2 (≈ 3.91 µM) |  |
| COc1c(N2CC3ON=C(CN)C3C2)c(F)cc2c(=O)c(C(=O)O)cn(C3CC3)c12 (stereo not shown) [ID No. 202] | 16 (≈ 38.4 µM) | 0.06 (≈ 0.144 µM) | 1 (≈ 2.4 µM) | > 16 |  |
| C[C@H]1COc2c(N3CC4ON=C(c5cccnc5)C4C3)c(F)cc3c(=O)c(C(=O)O)cn1c23 (stereo partly drawn) [ID No. 130, 7-[cis-3-(3-pyridyl)-3a,4,6,6a-tetrahydropyrrolo[3,4-d]isoxazol-5-yl]S-(−)-9,10-difluoro-2,3-dihydro-3-methyl-7-oxo-7H-pyrido-[1,2,3-de][1,4]-benzoxazine-6-carboxylic acid] | 16 (≈ 35.5 µM) | 0.25 (≈ 0.555 µM) | 2 (≈ 4.44 µM) | 16 (≈ 35.5 µM) |  |
| C[C@H]1COc2c(N3CC4ON=C(CN)C4C3)c(F)cc3c(=O)c(C(=O)O)cn1c23 (stereo partly shown) [ID No. 204] | > 16 | 0.25 (≈ 0.621 µM) | 16 (≈ 39.8 µM) | > 16 |  |
| COc1c(N2CC3ON=C(CN)C3C2)c(F)cc2c(=O)c(C(=O)O)cn([C@@H]3C[C@@H]3F)c12 (stereo partly shown) [ID No. 203] | > 16 | 0.12 (≈ 0.276 µM) | 2 (≈ 4.6 µM) | > 16 |  |

— patent publication US7902227B2, “C-7 isoxazolinyl quinolone / naphthyridine derivatives useful as antibacterial agents” (Janssen Pharmaceutica NV., priority 2008, dated 2011)
